Results taken from patent US9266835B2, “Quinoline derivatives useful as CB-1 inverse agonists” (JANSSEN PHARMACEUTICA NV, priority 2014, dated 2016).

Assay: Chronic DIO Mouse, first study (food intake, body weight, insulin tolerance test, glucose tolerance test, plasma insulin, fed blood glucose)
Format: in vivo
Conditions: DIO mice; for Fed Blood Glucose / Plasma Insulin: mean (Std Err)
Experimental: Male 14-20-week old diet-induced obese mice were ordered from Taconic. Mice were started on a 60% fat diet (D12492, Research Diets, New Brunswick, N.J.) at 6 weeks of age. Mice were single-housed.
Test compounds were formulated in 10% PEG400 and 10% solutol. Test compounds were administered by oral gavage (5 ml kg^−1).
The test compound was formulated in 10% PEG400 and 10% solutol. DIO mice received vehicle, test compound (@ 1, 3 and 10 mg/kg) daily for 26 days. At the end of the experiment, the mice were euthanized and blood and tissues were collected.
Body weight and food weight (food intake) were monitored daily for days 1-5 and twice weekly thereafter. Fed blood glucose was measured weekly.
An insulin tolerance test (0.5 U/kg Humulin, ip) was performed on day 19 after a 4 hour food removal. Blood glucose was measured at 0, 15, 30, 60 and 120 minutes after insulin. […] Blood glucose was measured at 0, 30, 60 and 120 minutes after glucose challenge.
Blood glucose was measured from the tail vein with a Lifescan glucometer. Plasma insulin was measured with an ELISA or HTRF kit (Cisbio). Plasma parameters were measured with an Olympus clinical chemistry analyzer.
Compound #44 was tested according to the procedure as described above, with results as listed in Table BIO-4A through Table BIO4-G, below.

Structure (SMILES): O=c1cc(NC2CCN(S(=O)(=O)C(F)(F)F)CC2)c2cc(C(c3ccc(Cl)cc3)c3ccc(Cl)cc3)ccc2[nH]1 [Compound #44, 6-(bis(4-chlorophenyl)methyl)-4-(1-(trifluoromethylsulfonyl)piperidin-4-ylamino)quinolin-2(1H)-one]
- Fed Blood Glucose (1 mg/kg daily oral, Day 0): 162.75 (13.02) mg/dL
- Fed Blood Glucose (1 mg/kg daily oral, Day 18): 154.83 (5.98) mg/dL
- Plasma Insulin (1 mg/kg daily oral): 2.60 (0.3) ng/mL
- Mean Body Weight (Std Err) (1 mg/kg daily, Day 1): 43.32 (0.45) Grams
- Mean Body Weight (Std Err) (1 mg/kg daily, Day 2): 43.28 (0.45) Grams
- Mean Daily Food Intake (Std Err) (1 mg/kg daily, Day 2): 2.84 (0.17) Grams
- Mean Body Weight (Std Err) (1 mg/kg daily, Day 3): 43.28 (0.42) Grams
- Mean Daily Food Intake (Std Err) (1 mg/kg daily, Day 3): 3.00 (0.09) Grams
- Mean Body Weight (Std Err) (1 mg/kg daily, Day 4): 43.06 (0.44) Grams
- Mean Daily Food Intake (Std Err) (1 mg/kg daily, Day 4): 2.76 (0.17) Grams
- Mean Body Weight (Std Err) (1 mg/kg daily, Day 5): 43.21 (0.50) Grams
- Mean Daily Food Intake (Std Err) (1 mg/kg daily, Day 5): 2.88 (0.12) Grams
- Mean Body Weight (Std Err) (1 mg/kg daily, Day 8): 42.62 (0.48) Grams
- Mean Daily Food Intake (Std Err) (1 mg/kg daily, Day 8): 2.50 (0.09) Grams
- Mean Body Weight (Std Err) (1 mg/kg daily, Day 10): 42.38 (0.51) Grams
- Mean Daily Food Intake (Std Err) (1 mg/kg daily, Day 10): 2.37 (0.07) Grams
- Mean Body Weight (Std Err) (1 mg/kg daily, Day 11): 42.07 (0.63) Grams
- Mean Daily Food Intake (Std Err) (1 mg/kg daily, Day 11): 2.28 (0.15) Grams
- Insulin Tolerance Test, Blood Glucose AUC (1 mg/kg daily, day 19): 18543.8 mg·min/dL
- Insulin Tolerance Test Mean Blood Glucose (Std Err) (1 mg/kg daily, day 19, 0 min after insulin): 194.0 (6.1) mg/dL
- Insulin Tolerance Test Mean Blood Glucose (Std Err) (1 mg/kg daily, day 19, 15 min after insulin): 196.1 (18.6) mg/dL
- Insulin Tolerance Test Mean Blood Glucose (Std Err) (1 mg/kg daily, day 19, 30 min after insulin): 136.7 (10.4) mg/dL
- Insulin Tolerance Test Mean Blood Glucose (Std Err) (1 mg/kg daily, day 19, 60 min after insulin): 145.1 (11.5) mg/dL
- Insulin Tolerance Test Mean Blood Glucose (Std Err) (1 mg/kg daily, day 19, 120 min after insulin): 151.4 (7.8) mg/dL
- Intraperitoneal Glucose Tolerance Test Blood Glucose AUC (1 mg/kg daily, day 23): 29525.6 mg·min/dL
- Intraperitoneal Glucose Tolerance Test Mean Blood Glucose (Std Err) (1 mg/kg daily, day 23, 0 min after glucose): 158.1 (6.9) mg/dL
- Intraperitoneal Glucose Tolerance Test Mean Blood Glucose (Std Err) (1 mg/kg daily, day 23, 30 min after glucose): 334.6 (14.5) mg/dL
- Intraperitoneal Glucose Tolerance Test Mean Blood Glucose (Std Err) (1 mg/kg daily, day 23, 60 min after glucose): 264.8 (19.7) mg/dL
- Intraperitoneal Glucose Tolerance Test Mean Blood Glucose (Std Err) (1 mg/kg daily, day 23, 120 min after glucose): 173.4 (13.5) mg/dL
- Fed Blood Glucose (3 mg/kg daily oral, Day 0): 167.13 (7.59) mg/dL
- Fed Blood Glucose (3 mg/kg daily oral, Day 18): 156.50 (7.39) mg/dL
- Plasma Insulin (3 mg/kg daily oral): 2.26 (0.3) ng/mL
- Mean Body Weight (Std Err) (3 mg/kg daily, Day 1): 43.19 (0.39) Grams
- Mean Body Weight (Std Err) (3 mg/kg daily, Day 2): 42.86 (0.47) Grams
- Mean Daily Food Intake (Std Err) (3 mg/kg daily, Day 2): 2.71 (0.13) Grams
- Mean Body Weight (Std Err) (3 mg/kg daily, Day 3): 42.71 (0.56) Grams
- Mean Daily Food Intake (Std Err) (3 mg/kg daily, Day 3): 2.92 (0.13) Grams
- Mean Body Weight (Std Err) (3 mg/kg daily, Day 4): 42.20 (0.65) Grams
- Mean Daily Food Intake (Std Err) (3 mg/kg daily, Day 4): 2.44 (0.24) Grams
- Mean Body Weight (Std Err) (3 mg/kg daily, Day 5): 41.95 (0.70) Grams
- Mean Daily Food Intake (Std Err) (3 mg/kg daily, Day 5): 2.26 (0.20) Grams
- Mean Body Weight (Std Err) (3 mg/kg daily, Day 8): 41.06 (0.76) Grams
- Mean Daily Food Intake (Std Err) (3 mg/kg daily, Day 8): 2.30 (0.11) Grams
- Mean Body Weight (Std Err) (3 mg/kg daily, Day 10): 40.50 (0.74) Grams
- Mean Daily Food Intake (Std Err) (3 mg/kg daily, Day 10): 2.14 (0.15) Grams
- Mean Body Weight (Std Err) (3 mg/kg daily, Day 11): 40.15 (0.74) Grams
